Data from ChEMBL document CHEMBL1212880, “Discovery of (2,4-dihydroxy-5-isopropylphenyl)-[5-(4-methylpiperazin-1-ylmethyl)-1,3-dihydroisoindol-2-yl]methanone (AT13387), a novel inhibitor of the molecular chaperone Hsp90 by fragment based drug design” (J Med Chem, 2010).

Legend:
[1] = Dissociation constant, pKa of the compound; type: physicochemical
hERG (KCNH2) [2] = biological target: T1, hERG (KCNH2) (Homo sapiens, UniProt Q12809); assay: in vitro; details: HEK293 cells expressing hERG
Description: Inhibition of human ERG expressed in HEK293 cells at 3 uM by patch clamp assay

Cytochrome P450 2C9 = Cytochrome P450 2C9 (Homo sapiens, UniProt P11712); assay: Binding affinity to CYP2C9; type: ADME
Chain of Cytochrome P450 2C9 (P11712 whole entry): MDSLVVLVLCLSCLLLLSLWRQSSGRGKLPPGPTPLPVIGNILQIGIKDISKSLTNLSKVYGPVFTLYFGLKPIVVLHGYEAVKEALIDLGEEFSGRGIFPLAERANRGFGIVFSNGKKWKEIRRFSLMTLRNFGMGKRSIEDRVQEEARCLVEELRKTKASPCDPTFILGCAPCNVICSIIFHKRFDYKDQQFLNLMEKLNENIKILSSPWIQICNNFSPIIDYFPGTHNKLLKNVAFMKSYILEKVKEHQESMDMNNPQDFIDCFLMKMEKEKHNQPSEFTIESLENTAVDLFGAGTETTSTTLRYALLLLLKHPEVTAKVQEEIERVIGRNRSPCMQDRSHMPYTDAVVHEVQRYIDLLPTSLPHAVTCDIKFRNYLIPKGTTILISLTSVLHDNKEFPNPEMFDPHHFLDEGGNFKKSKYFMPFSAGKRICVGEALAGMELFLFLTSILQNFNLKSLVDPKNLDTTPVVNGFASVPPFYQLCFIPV

hERG (KCNH2) [3] = biological target: T1, hERG (KCNH2); assay: in vitro; details: HEK293 cells expressing hERG; remark: listed apart in the source
Description: Inhibition of human ERG expressed in HEK293 cells at 30 uM by patch clamp assay

physchem = details: buffer, pH 7.4
Cytochrome P450 2C19 = Cytochrome P450 2C19 (Homo sapiens, UniProt P33261); assay: Binding affinity to CYP2C19; type: ADME
Chain of Cytochrome P450 2C19 (P33261 whole entry): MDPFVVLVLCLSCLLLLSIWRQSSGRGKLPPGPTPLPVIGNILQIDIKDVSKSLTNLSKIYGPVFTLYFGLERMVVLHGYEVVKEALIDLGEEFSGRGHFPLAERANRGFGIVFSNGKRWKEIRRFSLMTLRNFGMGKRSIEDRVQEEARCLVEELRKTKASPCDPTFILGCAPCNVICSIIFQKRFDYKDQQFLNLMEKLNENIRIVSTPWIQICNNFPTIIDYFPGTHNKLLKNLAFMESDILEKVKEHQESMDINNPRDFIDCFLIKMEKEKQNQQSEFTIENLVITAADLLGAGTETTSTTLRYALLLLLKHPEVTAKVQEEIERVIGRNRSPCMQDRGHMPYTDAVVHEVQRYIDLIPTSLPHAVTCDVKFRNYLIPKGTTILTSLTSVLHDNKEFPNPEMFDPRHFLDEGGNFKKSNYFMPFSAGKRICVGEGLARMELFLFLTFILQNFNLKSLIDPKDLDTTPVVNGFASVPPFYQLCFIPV

[4] = Protein binding in human plasma after 6 hrs by equilibrium dialysis method; type: ADME, cell-free; details: read-out: PPB (converted)
CYP2C9 = CYP2C9 (Homo sapiens, UniProt P11712); assay: Inhibition of CYP2C9 at 10 uM; type: ADME
Chain of CYP2C9 (P11712 whole entry): as the sequence (P11712 whole entry) above

CYP2C19 = CYP2C19 (Homo sapiens, UniProt P33261); assay: Inhibition of CYP2C19 at 10 uM; type: ADME
Chain of CYP2C19 (P33261 whole entry): as the sequence (P33261 whole entry) above

[5] = Solubility of the compound in phosphate buffer at 15 mg at pH 6.5; type: physicochemical
[6] = Solubility of the compound in phosphate buffer at 15 mg at pH 5.5; type: physicochemical
[7] = Solubility of the compound in acetate buffer at 15 mg at pH 5.5; type: physicochemical
[8] = Solubility of the compound in lactate buffer at 15 mg at pH 4.2; type: physicochemical
[9] = Clearance in BALB/c mouse plasma at 10 mg/kg, iv; type: ADME, organism-based; design: dose 10 mg/kg, route intravenous
CYP3A4 = CYP3A4 (Homo sapiens, UniProt P08684); assay: Inhibition of CYP3A4 at 10 uM; type: ADME
Chain of CYP3A4 (P08684 whole entry): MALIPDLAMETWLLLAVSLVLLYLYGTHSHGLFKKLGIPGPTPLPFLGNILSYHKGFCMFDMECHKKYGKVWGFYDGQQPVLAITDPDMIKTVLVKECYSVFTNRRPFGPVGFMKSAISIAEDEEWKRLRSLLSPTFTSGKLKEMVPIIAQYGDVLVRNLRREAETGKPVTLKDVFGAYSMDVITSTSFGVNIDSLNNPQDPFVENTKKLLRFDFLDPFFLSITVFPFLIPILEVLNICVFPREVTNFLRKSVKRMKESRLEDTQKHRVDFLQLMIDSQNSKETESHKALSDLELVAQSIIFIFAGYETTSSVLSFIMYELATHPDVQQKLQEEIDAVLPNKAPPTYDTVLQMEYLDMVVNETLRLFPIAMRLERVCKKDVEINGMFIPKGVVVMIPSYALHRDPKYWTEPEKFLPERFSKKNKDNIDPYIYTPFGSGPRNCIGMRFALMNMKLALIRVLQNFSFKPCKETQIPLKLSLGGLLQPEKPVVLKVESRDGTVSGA

[10] = Intrinsic clearance in mouse liver S9 fraction; type: ADME, subcellular
HCT-116 [11] = assay: Antitumor activity against human HCT116 cells xenografted in BALB/c mouse assessed as inhibition of tumor growth at 80 mg/kg, ip qd for 8 days measured on day 12 relative to control; type: functional; details: HCT-116, ip, route intraperitoneal
HCT-116 [12] = assay: Antitumor activity against human HCT116 cells xenografted in BALB/c mouse assessed as inhibition of tumor growth at 80 mg/kg, ip qd for 8 days measured on day 12; type: functional; details: HCT-116, ip, route intraperitoneal
HCT-116 [13] = assay: Antitumor activity against human HCT116 cells xenografted in BALB/c mouse assessed as delay in tumor growth at 80 mg/kg, ip qd for 8 days; type: functional; details: route intraperitoneal
[14] = Drug level in human HCT116 cells xenografted nude BALB/c mouse tumor at 80 mg/kg, iv after 24 hrs; type: ADME, organism-based, Neoplasm, HCT-116; design: dose 80 mg/kg, route intravenous; details: read-out: Drug uptake
HCT-116 [15] = assay: Antitumor activity against human HCT116 cells xenografted in BALB/c mouse assessed as inhibition of tumor growth at 80 mg/kg, ip qd for 8 days measured on day 10 relative to control; type: functional; details: HCT-116, ip, route intraperitoneal
HCT-116 [16] = assay: Cytotoxicity against human HCT116 cells at 10 uM by Alamar blue assay; type: functional
[17] = Drug level in human HCT116 cells xenografted nude BALB/c mouse tumor at 40 mg/kg, iv after 24 hrs; type: ADME, organism-based, Neoplasm, HCT-116; design: dose 40 mg/kg, route intravenous; details: read-out: Drug uptake
HCT-116 [18] = assay: Antitumor activity against human HCT116 cells xenografted in BALB/c mouse assessed as inhibition of tumor growth at 80 mg/kg, ip qd for 8 days measured on day 10; type: functional; details: HCT-116, ip, route intraperitoneal

T1 sequence (Q12809 whole entry): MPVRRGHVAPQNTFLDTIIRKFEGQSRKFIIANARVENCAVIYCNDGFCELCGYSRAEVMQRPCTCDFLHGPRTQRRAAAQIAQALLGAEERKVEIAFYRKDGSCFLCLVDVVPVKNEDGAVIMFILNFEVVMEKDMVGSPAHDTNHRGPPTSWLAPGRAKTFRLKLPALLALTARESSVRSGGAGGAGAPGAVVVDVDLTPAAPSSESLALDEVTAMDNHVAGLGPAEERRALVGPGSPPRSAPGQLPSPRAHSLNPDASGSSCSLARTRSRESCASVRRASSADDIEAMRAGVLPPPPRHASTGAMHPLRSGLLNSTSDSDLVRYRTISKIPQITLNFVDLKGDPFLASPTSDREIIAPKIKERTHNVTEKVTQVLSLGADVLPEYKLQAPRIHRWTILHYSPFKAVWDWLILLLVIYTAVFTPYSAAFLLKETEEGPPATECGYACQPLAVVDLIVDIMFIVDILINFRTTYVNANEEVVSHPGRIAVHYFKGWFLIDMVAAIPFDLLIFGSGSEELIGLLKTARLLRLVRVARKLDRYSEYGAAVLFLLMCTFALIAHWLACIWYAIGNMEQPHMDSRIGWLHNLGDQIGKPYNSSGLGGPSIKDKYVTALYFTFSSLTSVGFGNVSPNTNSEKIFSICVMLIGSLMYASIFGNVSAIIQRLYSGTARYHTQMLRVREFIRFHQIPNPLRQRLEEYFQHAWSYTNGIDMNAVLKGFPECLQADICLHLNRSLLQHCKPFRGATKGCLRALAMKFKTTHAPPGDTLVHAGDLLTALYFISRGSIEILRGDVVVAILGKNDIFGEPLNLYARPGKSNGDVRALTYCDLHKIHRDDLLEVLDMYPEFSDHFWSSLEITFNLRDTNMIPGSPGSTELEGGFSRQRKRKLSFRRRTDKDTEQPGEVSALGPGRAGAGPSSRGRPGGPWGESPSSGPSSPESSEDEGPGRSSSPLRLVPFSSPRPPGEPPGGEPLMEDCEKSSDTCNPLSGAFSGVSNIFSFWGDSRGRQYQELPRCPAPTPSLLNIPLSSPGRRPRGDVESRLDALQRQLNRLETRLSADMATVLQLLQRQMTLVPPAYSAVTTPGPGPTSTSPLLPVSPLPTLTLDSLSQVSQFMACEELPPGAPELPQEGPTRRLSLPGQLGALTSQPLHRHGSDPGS

| SMILES | pKa [1] | logD (physchem) | inhibition at 3 µM (hERG (KCNH2) [2]) [%] | inhibition at 30 µM (hERG (KCNH2) [3]) [%] | further results |
| --- | --- | --- | --- | --- | --- |
| CC(C)c1cc(C(=O)N2Cc3ccc(N4CCOCC4)cc3C2)c(O)cc1O | 4.3 |  |  |  |  |
| CC(C)c1cc(C(=O)N2Cc3ccc(CN4CCOCC4)cc3C2)c(O)cc1O | 6.9 | 3.3 | 25 | 48 |  |
| CC(C)c1cc(C(=O)N2Cc3ccc(OCCN(C)C)cc3C2)c(O)cc1O | 7.85 | 2.4 | 45 | 87 | clearance [9]: 170 mL/min/kg; inhibition at 10 µM (CYP3A4): 34%; CL ([10]; s9): 0.034 mL/min/kg; inhibition in vivo at 80 mg/kg (HCT-116 [11]): 37%; inhibition in vivo at 80 mg/kg (HCT-116 [12]): 63%; Activity (HCT-116 [13]): 11.4 days; concentration at 24 h [14]: 11 µM |
| CC(C)c1cc(C(=O)N2Cc3ccc(N4CCN(C)CC4)cc3C2)c(O)cc1O | 7.3 | 2.98 | 41 | 87 | clearance [9]: 130 mL/min/kg; inhibition in vivo at 80 mg/kg (HCT-116 [15]): 19%; Activity (HCT-116 [16]): 0%; concentration at 24 h [17]: 6.5 µM; inhibition in vivo at 80 mg/kg (HCT-116 [18]): 81%; microsomal CLint ([10]; liver S9 fraction): 41 µL/min/mg; Activity (HCT-116 [13]): 10.5 days |
| CC(C)c1cc(C(=O)N2Cc3ccc(OCCNCC(C)(C)C)cc3C2)c(O)cc1O |  |  | 53 | 92 |  |

Now from value to compound, other results behind:

| pKa [1] | logD (physchem) | SMILES | inhibition at 3 µM (hERG (KCNH2) [2]) [%] | inhibition at 30 µM (hERG (KCNH2) [3]) [%] | further results |
| --- | --- | --- | --- | --- | --- |
| 10.2 | 0.96 | CC(C)c1cc(C(=O)N2Cc3ccc(OCCCN)cc3C2)c(O)cc1O | 8 | 42 | Activity (Cytochrome P450 2C9): Active; Activity (Cytochrome P450 2C19): Active |
| 10.2 | 0.7 | CC(C)c1cc(C(=O)N2Cc3ccc(NC4CCNCC4)cc3C2)c(O)cc1O | 10 | 20 |  |
| 9.2 | 2.1 | CC(C)c1cc(C(=O)N2Cc3ccc(CN(C)C)cc3C2)c(O)cc1O | 5 | 57 | fraction unbound at 6 h [4]: 0.36; inhibition at 10 µM (CYP2C9): 50%; inhibition at 10 µM (CYP2C19): 50% |
| 7 | 3.55 | CC(C)c1cc(C(=O)N2Cc3cccc(OCCCN4CCOCC4)c3C2)c(O)cc1O | 23 | 83 |  |
| 9.05 | 1.7 | CC(C)c1cc(C(=O)N2Cc3ccc(NC4CCN(C)CC4)cc3C2)c(O)cc1O | 25 | 72 | solubility [5]: < 3000 µg/mL; fraction unbound at 6 h [4]: 0.36; solubility [6]: < 3000 µg/mL; solubility [7]: < 3000 µg/mL; solubility [8]: < 3000 µg/mL |
